US20080051413A1, “Nitrophenylpiperazine derivative of xanthine which relaxes tracheal airway and increases respiratory performance” (KAOHSIUNG MEDICAL UNIVERSITY, priority 2006, published 2008)

What was measured:
[1] = biological target: T1, PDE3 purified from human platelets (Homo sapiens, UniProt Q14432); experiment: Phosphodiesterase activity, PDE3; assay type: biochemical; settings: 10 _M compound, n = 3
T1 construct: PDE3 and PDE5 purified from human platelets; from tissue; host or cells: human platelets

[2] = test system: PDE4 purified from human U-937 pronocytic cells; experiment: Phosphodiesterase activity, PDE4; assay type: biochemical; settings: 10 _M compound, n = 3
Procedure: Phosphodiesterase Activity: PDE activity was determined by the method of Nicholson et al. (Nicholson C D, Challiss R A, and Shahid M (1991) Differential modulation of tissue function and therapeutic potential of selective inhibitors of cyclic nucleotide phosphodiesterase isonzymes. Trends Pharmaclo Sci 12:19-27). PDE3 and PDE5 purified from human platelets and PDE4 purified from human U-937 pronocytic cells were used. Test compound (10 _M) or vehicle was incubated with 0.2 _g of enzyme and 1 _M cAMP containing 0.01 _M [^3H]cAMP in Tris buffer, pH 7.5, for 20 min at 25_. The reaction was terminated by boiling for 2 min, and the resulting […] was converted to adenosine by the addition of 10 mg/ml snake venom nucleotidase, which is followed by a further incubation at 37_for 10 min. Unhydrolyzed cAMP was bound to AG1-X2 resin, and the remaining [^3H]adenosine in the aqueous phase was quantitated by scintillation counting.

[3] = biological target: T2, PDE5 purified from human platelets (Homo sapiens, UniProt O76074); experiment: Phosphodiesterase activity, PDE5; assay type: biochemical; settings: 10 _M compound, n = 3
T2 construct: PDE3 and PDE5 purified from human platelets; from tissue; host or cells: human platelets

respiratory performance = experiment: Pulmonary function after i.v. injection (RL, Cdyn, tidal volume); assay type: in vivo; settings: 1 mg/kg i.v., guinea pig, n = 3
Procedure: Animals: Male Dunkin Harley guinea pigs (350-450 g) were provide by the National Laboratory Animal Breeding and Research Center (Taipei, Taiwan) and housed under conditions of constant temperature and controlled illumination. Food and water were available and libitum. The study was approved by the Animal Care and Use Committee of the Kaohsiung Medical University.
Pulmonary Function: Guinea pegs (350-450 g) were anesthetized with pentobarbital (40 mg/kg i.p.) and maintained with further i.v. doses of 2 to 5 mg/kg when required according to methods previously described (Wu B N, Lin R J, Lo Y C, Shen K P, Wang C C, Lin Y T, and Chen I J (2004) KMUP-1, a xanthine derivative, induces relaxation of guinea-pig isolated trachea: the role of the epithelium, cyclic nucleotides and K^+ channels, Br J Pharmacol 142:1105-1114). The animal was tethered in a supine position, and the trachea was cannulated below the larynx with a short tracheal cannula via a tracheotomy. Tracheal pressure was measured by a catheter connected to the side arm of the tracheal cannula. The carotid artery and jugular vein were cannulated to monitor blood pressure and heart rate and for drug administration, respectively. Throughout the experiment, the body temperature of the guinea pig was maintained at 37_. Measurements of pulmonary cardiac function were carried out as previously described (Hsu T H, Lai Y L, and Kou Y R (1998) Acetylcholine and tachykinin receptor antagonists attenuate wood smoke-induced bronchoconstriction in Guinea pigs. Eur J Pharmacol 360:175-183). Total lung resistance (RL) and dynamic lung compliance (Cdyn) were measured on a breath-by-breath basis using a computer equipped with an A/D interface (DAS 1600; Buxco Electronics, Inc., Wilmington, N.C.) and software (version 1.5.7; Buxco Electronics, Inc.). Results obtained from the computer analysis were checked for accuracy by comparison with those calculated manually.
Animals were allowed to stabilize for 10 min following surgical manipulations before the test agent was administered. Intratracheal instillation was performed using a catheter placed through the tracheal tube into the bronchial system. The catheter connected to a 1-ml syringe was inserted into the trachea cannula extending 1 cm beyond the tip of the cannula for instillation of drug or vehicle. The instillation was followed by rapid intratracheal injection of 0.5 ml of air to facilitate deposition of drug or vehicle into the lungs as in the modified methods of Chung et al. (2001)(Chung W H, Bennett B M, Racz W J, Brien J F, and […] Fischer 344 rats during aminodarone-induced pulmonary fibrosis. Am J Physiol 281:L1180-L1188). The animals were pretreated intratracheally with KMUP-3 (0.5, 1.0, and 2.0 mg/kg/150 _l of saline) or an equivalent volume (150 _l) of vehicle 15 min before TNF-_(0.01 mg/kg/300 _l saline) was instilled to induce acute bronchoconstriction. In another experiments, KMUP-3 or KMUP-1 (1.0 mg/kg i.v.) were used to compare the effects on respiratory performance, indicated by changes of tidal volume, total RL, and Cdyn.

T1 sequence (Q14432 whole entry): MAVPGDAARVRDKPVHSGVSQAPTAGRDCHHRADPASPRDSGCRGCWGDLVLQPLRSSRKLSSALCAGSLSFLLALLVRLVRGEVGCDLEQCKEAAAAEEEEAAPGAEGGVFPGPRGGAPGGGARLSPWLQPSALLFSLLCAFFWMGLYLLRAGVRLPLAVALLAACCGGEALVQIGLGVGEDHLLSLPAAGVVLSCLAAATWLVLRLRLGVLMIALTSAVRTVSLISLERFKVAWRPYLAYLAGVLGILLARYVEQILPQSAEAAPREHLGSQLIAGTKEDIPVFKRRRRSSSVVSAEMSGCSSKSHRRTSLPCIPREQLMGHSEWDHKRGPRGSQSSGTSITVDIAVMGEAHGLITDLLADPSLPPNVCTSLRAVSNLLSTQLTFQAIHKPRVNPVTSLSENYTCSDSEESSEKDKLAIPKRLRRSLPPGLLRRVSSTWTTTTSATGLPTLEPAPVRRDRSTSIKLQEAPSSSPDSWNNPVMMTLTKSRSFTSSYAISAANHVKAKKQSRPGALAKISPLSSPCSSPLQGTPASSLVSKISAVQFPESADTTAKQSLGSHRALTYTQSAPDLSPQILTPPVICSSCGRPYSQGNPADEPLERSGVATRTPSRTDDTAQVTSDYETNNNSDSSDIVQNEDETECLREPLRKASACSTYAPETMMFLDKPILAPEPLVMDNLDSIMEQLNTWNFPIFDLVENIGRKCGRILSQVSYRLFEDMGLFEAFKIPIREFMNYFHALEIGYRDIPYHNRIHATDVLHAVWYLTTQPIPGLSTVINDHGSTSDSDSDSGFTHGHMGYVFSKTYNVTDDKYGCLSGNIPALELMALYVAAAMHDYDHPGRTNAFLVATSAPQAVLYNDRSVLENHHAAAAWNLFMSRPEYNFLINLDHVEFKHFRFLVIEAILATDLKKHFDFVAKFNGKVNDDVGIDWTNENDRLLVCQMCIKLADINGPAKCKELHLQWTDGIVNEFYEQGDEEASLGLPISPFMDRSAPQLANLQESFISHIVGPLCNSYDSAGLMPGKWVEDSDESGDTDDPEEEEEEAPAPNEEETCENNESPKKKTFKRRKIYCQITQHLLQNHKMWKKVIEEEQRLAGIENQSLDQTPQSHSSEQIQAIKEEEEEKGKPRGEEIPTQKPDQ

- PDE3 inhibition [1]: 23 ± 2.2%
- PDE5 Inhibition [3]: 29 ± 2.5%
SMILES: Cn1c(=O)c2c(ncn2CCN2CCN(c3ccccc3Cl)CC2)n(C)c1=O [KMUP-1, reference compound]
- PDE4 Inhibition [2]: 18 ± 2.3%
- Cdyn, Maximum change of baseline (%) (respiratory performance): 35 ± 4.5%
- RL, Maximum change of baseline (%) (respiratory performance): −20 ± 3.5%
- Tidal Volume, Maximum change of baseline (%) (respiratory performance): 2.8 ± 0.2%
